{"source": "patent US11547686B2", "about": "(priority 2017, dated 2023)", "key": {"[1]": {"assay": "Solubility of pregabalin and acetaminophen in water at different pH values (HPLC-UV)", "conditions": "for solubility: thermodynamic from solid, Solubility of acetaminophen", "procedure": "The pH was then adjusted to the required range. The concentration of the active ingredients was determined by HPLC-UV."}, "in vivo": {"assay": "in vivo", "conditions": "for AUC(0-inf) / Cmax: rat, in vivo, iv, 17 mg/kg", "procedure": "The active ingredients were dissolved in 0.9% saline (20 mL) to achieve the desired concentration. The saline and vial constituents were mixed with by gentle swirling until a clear solution was obtained. The obtained clear solution was filtered through a sterile 0.45 μm PVDF membrane syringe filter and then used for further studies.\nBlood samples were collected over a 24 h period, at which time the rats were exsanguinated, and the blood was collected for clinical pathology evaluation (chemistry, hematology, and coagulation). Finally, all the animals were necropsied (all exterior and interior cavities and organs were examined), and the site of infusion in the jugular vein, lung, liver, and kidney underwent histopathologic evaluation."}, "[2]": {"test_system": "red blood cells (mouse whole unclotted blood)", "assay": "In vitro hemolysis test, mouse blood", "conditions": "15 min at 37° C."}, "[3]": {"test_system": "red blood cells (rat whole unclotted blood)", "assay": "In vitro hemolysis test, rat blood", "conditions": "15 min at 37° C."}, "[4]": {"test_system": "red blood cells (dog whole unclotted blood)", "assay": "In vitro hemolysis test, dog blood", "conditions": "15 min at 37° C."}, "[5]": {"test_system": "red blood cells (human whole unclotted blood)", "assay": "In vitro hemolysis test, human blood", "conditions": "15 min at 37° C."}, "[6]": {"test_system": "somatic pain in a rat model", "assay": "Hot plate test (somatic pain)", "type": "in vivo, Sprague-Dawley rats", "conditions": "rats; morphine 3 mg/kg s.c.; combination 50 mg/kg APAP; 40 mg/kg pregabalin IV infusion", "method": "Hot Plate Test: The hot plate test is a test that can be used to assess pain sensitivity in rodents. […] In the test, an animal is placed in a confined cylindrical space to restrict locomotion. The floor surface of the space is maintained at a temperature sufficiently hot to elicit an aversive response, but not so hot that tissue damage is induced, typically 50-56° C. The animal is monitored, and latency to paw licking or jumping is recorded. This test can be used to screen novel drugs or drug combinations for effects on pain detection threshold; substances with an analgesic effect can increase latency to licking/jumping, while substances with a hyperalgesic effect can decrease latency.\nThe effect on somatic pain was tested in groups of 8 Male Sprague-Dawley rats.\nVehicle and test agents were administered by intravenous infusion (IV-CI) over 15 minutes starting 30 minutes before Time 0 (15 minutes post infusion). Morphine was used as a positive control, and was administered (3 mg/kg) by subcutaneous administration 60 minutes before Time 0. […] The pain threshold of the rats was assessed based on the time (seconds) required to elicit a paw withdrawal response (latency).\nThe data were analyzed by a one-way ANOVA followed by Dunnett's test for comparison between vehicle control and test article/positive control groups."}}}
{"smiles": "CC(=O)Nc1ccc(O)cc1", "note": "[Acetaminophen, N-(4-hydroxyphenyl)acetamide]", "values": [{"measurement": "solubility", "setting": "[1]; pH 4, aqueous buffer, water, pH 4, co-dissolved with pregabalin", "value": "~21", "unit": "mg/mL"}, {"measurement": "solubility", "setting": "[1]; pH 5, aqueous buffer, water, pH 5, co-dissolved with pregabalin", "value": 18.7, "unit": "mg/mL"}, {"measurement": "solubility", "setting": "[1]; pH 6, aqueous buffer, water, pH 6, co-dissolved with pregabalin", "value": 17.9, "unit": "mg/mL"}, {"measurement": "solubility", "setting": "[1]; pH 7, aqueous buffer, water, pH 7, co-dissolved with pregabalin", "value": 17.9, "unit": "mg/mL"}, {"measurement": "Difference in the solubility of acetaminophen", "setting": "[1]; pH range from 4-7, acetaminophen alone", "value": "no significant difference"}, {"measurement": "Solubility of acetaminophen", "setting": "[1]; water, pH 4, co-dissolved with pregabalin", "value": 20.8, "unit": "mg/mL"}, {"measurement": "AUC(0-inf)", "setting": "in vivo; AUC0-∞ of acetaminophen", "value": 11500, "unit": "ng·h/mL"}, {"measurement": "Cmax", "setting": "in vivo; Cmax of acetaminophen", "value": 18600, "unit": "ng/mL"}, {"measurement": "AUC(0-inf)", "setting": "in vivo; Equivalence (80%-125%) range of acetaminophen AUC0-∞", "value": "9190 to 14400", "unit": "ng·h/mL"}, {"measurement": "Cmax", "setting": "in vivo; Equivalence (80%-125%) range of acetaminophen Cmax", "value": "14900 to 23300", "unit": "ng/mL"}, {"measurement": "Effect of the presence or absence of pregabalin on the pharmacokinetics of acetaminophen", "setting": "in vivo; rats, 15 min IV infusion", "value": "did not affect"}, {"measurement": "% Hemolysis", "setting": "[2]; APAP 5 mg/mL", "value": 5, "unit": "%"}, {"measurement": "% Hemolysis", "setting": "[2]; APAP 7.5 mg/mL", "value": 5, "unit": "%"}, {"measurement": "% Hemolysis", "setting": "[2]; APAP 10 mg/mL", "value": 4, "unit": "%"}, {"measurement": "% Hemolysis", "setting": "[3]; APAP 5 mg/mL", "value": 6, "unit": "%"}, {"measurement": "% Hemolysis", "setting": "[3]; APAP 7.5 mg/mL", "value": 0, "unit": "%"}, {"measurement": "% Hemolysis", "setting": "[3]; APAP 10 mg/mL", "value": 2, "unit": "%"}, {"measurement": "% Hemolysis", "setting": "[4]; APAP 5 mg/mL", "value": 0, "unit": "%"}, {"measurement": "% Hemolysis", "setting": "[4]; APAP 7.5 mg/mL", "value": 0, "unit": "%"}, {"measurement": "% Hemolysis", "setting": "[4]; APAP 10 mg/mL", "value": 0, "unit": "%"}, {"measurement": "% Hemolysis", "setting": "[5]; APAP 5 mg/mL", "value": 2, "unit": "%"}, {"measurement": "% Hemolysis", "setting": "[5]; APAP 7.5 mg/mL", "value": 0, "unit": "%"}, {"measurement": "% Hemolysis", "setting": "[5]; APAP 10 mg/mL", "value": 6, "unit": "%"}]}
{"smiles": "CN1CC[C@]23c4c5ccc(O)c4O[C@H]2[C@@H](O)C=C[C@H]3[C@H]1C5", "note": "[morphine]", "values": [{"measurement": "Onset of the analgesic effect", "setting": "[6]", "value": "near immediate"}]}
